Data on 13 compounds can be found in patent US8697739B2, “Bicyclic acetyl-CoA carboxylase inhibitors and uses thereof” (Novartis AG, priority 2010, dated 2014).

The IC50 is the concentration that inhibits the measured activity by half.

T1 sequence (O00763 144-2458): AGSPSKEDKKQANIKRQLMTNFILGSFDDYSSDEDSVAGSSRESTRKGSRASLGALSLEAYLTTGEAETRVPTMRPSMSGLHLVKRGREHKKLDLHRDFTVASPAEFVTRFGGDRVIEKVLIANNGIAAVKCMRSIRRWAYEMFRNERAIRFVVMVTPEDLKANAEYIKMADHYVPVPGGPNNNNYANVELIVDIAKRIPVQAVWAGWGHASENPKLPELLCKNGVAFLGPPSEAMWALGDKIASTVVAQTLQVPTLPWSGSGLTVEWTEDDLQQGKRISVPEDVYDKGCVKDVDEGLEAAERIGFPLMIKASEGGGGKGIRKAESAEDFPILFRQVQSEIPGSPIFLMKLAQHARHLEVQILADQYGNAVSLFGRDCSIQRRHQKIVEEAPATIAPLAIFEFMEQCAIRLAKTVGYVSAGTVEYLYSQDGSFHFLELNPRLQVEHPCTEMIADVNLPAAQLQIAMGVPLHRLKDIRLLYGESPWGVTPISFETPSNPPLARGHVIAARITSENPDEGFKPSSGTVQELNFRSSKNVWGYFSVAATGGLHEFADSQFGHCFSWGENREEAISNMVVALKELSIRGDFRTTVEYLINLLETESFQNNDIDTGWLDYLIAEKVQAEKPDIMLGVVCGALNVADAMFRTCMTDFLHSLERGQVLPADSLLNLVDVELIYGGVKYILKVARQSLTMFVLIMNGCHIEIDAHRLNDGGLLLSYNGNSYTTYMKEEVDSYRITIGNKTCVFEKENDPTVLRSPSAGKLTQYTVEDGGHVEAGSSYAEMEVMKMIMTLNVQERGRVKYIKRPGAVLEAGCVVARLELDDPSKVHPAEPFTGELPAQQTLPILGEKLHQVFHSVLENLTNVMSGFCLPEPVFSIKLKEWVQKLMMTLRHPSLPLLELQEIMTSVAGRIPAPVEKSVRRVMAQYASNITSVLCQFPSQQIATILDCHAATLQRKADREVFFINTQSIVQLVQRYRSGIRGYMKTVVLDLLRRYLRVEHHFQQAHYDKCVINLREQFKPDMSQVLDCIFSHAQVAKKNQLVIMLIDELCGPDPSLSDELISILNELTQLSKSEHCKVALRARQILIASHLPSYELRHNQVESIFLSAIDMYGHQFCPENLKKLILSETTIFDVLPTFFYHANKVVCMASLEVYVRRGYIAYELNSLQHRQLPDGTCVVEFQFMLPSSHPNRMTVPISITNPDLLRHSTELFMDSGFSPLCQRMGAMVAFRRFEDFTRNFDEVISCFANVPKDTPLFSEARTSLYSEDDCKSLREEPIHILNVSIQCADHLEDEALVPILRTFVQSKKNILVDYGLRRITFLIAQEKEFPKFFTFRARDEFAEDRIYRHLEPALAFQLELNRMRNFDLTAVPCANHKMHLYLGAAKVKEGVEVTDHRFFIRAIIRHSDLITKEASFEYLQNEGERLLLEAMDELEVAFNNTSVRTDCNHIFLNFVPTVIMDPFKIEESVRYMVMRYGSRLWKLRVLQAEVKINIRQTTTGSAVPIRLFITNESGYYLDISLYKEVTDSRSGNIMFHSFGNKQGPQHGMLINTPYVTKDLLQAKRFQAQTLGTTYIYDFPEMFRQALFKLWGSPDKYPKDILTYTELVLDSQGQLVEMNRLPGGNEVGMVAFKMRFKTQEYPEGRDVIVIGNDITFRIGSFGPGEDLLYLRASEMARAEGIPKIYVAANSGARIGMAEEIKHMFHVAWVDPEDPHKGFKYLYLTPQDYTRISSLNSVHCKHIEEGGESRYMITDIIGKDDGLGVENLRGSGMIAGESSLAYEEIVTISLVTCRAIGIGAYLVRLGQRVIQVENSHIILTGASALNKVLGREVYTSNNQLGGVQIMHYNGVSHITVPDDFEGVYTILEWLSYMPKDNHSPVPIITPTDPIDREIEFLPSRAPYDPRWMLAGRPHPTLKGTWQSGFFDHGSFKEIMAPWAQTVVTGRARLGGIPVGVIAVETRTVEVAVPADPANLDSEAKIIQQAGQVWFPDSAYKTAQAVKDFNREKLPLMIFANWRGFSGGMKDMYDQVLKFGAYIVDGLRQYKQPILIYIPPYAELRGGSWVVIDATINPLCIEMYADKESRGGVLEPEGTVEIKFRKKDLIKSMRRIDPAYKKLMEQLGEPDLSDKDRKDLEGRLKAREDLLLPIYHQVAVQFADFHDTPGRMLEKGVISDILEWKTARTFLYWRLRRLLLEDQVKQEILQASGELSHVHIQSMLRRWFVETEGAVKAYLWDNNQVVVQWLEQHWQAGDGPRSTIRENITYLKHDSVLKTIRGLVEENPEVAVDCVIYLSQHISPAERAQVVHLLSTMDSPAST

This test concerns the target T1, human acetyl-CoA carboxylase 2 (ACC2) (Homo sapiens, UniProt O00763).
T1 construct: The cDNA encoding amino acids 144 to 2458 of human acetyl-CoA carboxylase 2; made in house; host or cells: Sf9 insect cells (baculovirus, pFastBac1)
In words: Acetyl-CoA carboxylase enzyme assay (malonyl-CoA formation by LC/MS/MS). To be noted: recombinant human ACC2 (aa 144-2458); read-out: IC50 ACC2. It counts as biochemical. In a few lines:
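Malonyl-CoA formation was read by LC/MS/MS MRM against a [13C3]-malonyl-CoA internal standard, after acetic acid quench. The enzyme was baculovirus/Sf9-expressed human ACC2 residues 144–2458, given 15 minutes room-temperature compound preincubation in HEPES pH 7.5 buffer with MgCl2, citrate and DTT. Substrate solution held 50 μM acetyl-CoA, 120 μM ATP and 2 mM KHCO3.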
Take `O=C([C@H]1CC[C@H](NS(=O)(=O)c2ccc3[nH]c(-c4ccccc4)nc3c2)CC1)N1CCN(CC2CCCCC2)CC1` [Example 627, N-((1r,4r)-4-(4-(cyclohexylmethyl)piperazine-1-carbonyl)cyclohexyl)-2-phenyl-1H-benzo[d]imidazole-5-sulfonamide]: the IC50 is 2060 nM. Turning to `O=C(NCCc1ccccc1)[C@H]1CC[C@H](NS(=O)(=O)c2ccc3[nH]c(-c4ccccc4)nc3c2)CC1` [Example 628, (1r,4r)-N-phenethyl-4-(2-phenyl-1H-benzo[d]imidazole-5-sulfonamido)cyclohexanecarboxamide], the IC50 was 408 nM. As for `CC(C)CNC(=O)[C@H]1CC[C@H](NS(=O)(=O)c2ccc3[nH]c(-c4ccccc4)nc3c2)CC1` [Example 629, (1r,4r)-N-isobutyl-4-(2-phenyl-1H-benzo[d]imidazole-5-sulfonamido)cyclohexanecarboxamide], the IC50 was 1760 nM.

Regarding `CC(C)CCNC(=O)[C@H]1CC[C@H](NS(=O)(=O)c2ccc3[nH]c(-c4ccccc4)nc3c2)CC1` [Example 630, (1r,4r)-N-isopentyl-4-(2-phenyl-1H-benzo[d]imidazole-5-sulfonamido)cyclohexanecarboxamide], the half-maximal inhibitory concentration (IC50) was 781 nM. With `CN(C)CCNC(=O)[C@H]1CC[C@H](NS(=O)(=O)c2ccc3[nH]c(-c4ccccc4)nc3c2)CC1` [Example 631, (1r,4r)-N-(2-(dimethylamino)ethyl)-4-(2-phenyl-1H-benzo[d]imidazole-5-sulfonamido)cyclohexanecarboxamide], the 50% inhibitory concentration (IC50) was found to be 10300 nM. On to `O=C(NC1CCCCC1)[C@H]1CC[C@H](NS(=O)(=O)c2ccc3[nH]c(-c4ccccc4)nc3c2)CC1` [Example 632, (1r,4r)-N-cyclohexyl-4-(2-phenyl-1H-benzo[d]imidazole-5-sulfonamido)cyclohexanecarboxamide], for which the half-inhibitory concentration (IC50) stood at 145 nM.

As to `CCCCNC(=O)[C@H]1CC[C@H](NS(=O)(=O)c2ccc3[nH]c(-c4ccccc4)nc3c2)CC1` [Example 633, (1r,4r)-N-butyl-4-(2-phenyl-1H-benzo[d]imidazole-5-sulfonamido)cyclohexanecarboxamide], the IC50 turned out to be 1170 nM.

Consider `COCCNC(=O)[C@H]1CC[C@H](NS(=O)(=O)c2ccc3[nH]c(-c4ccccc4)nc3c2)CC1` [Example 634, (1r,4r)-N-(2-methoxyethyl)-4-(2-phenyl-1H-benzo[d]imidazole-5-sulfonamido)cyclohexanecarboxamide], for which the IC50 is 1680 nM. As for `O=C(NC1CC1)[C@H]1CC[C@H](NS(=O)(=O)c2ccc3[nH]c(-c4ccccc4)nc3c2)CC1` [Example 635, (1r,4r)-N-cyclopropyl-4-(2-phenyl-1H-benzo[d]imidazole-5-sulfonamido)cyclohexanecarboxamide], the IC50 was 256 nM. Next, `O=C(NC1CCCc2ccccc21)[C@H]1CC[C@H](NS(=O)(=O)c2ccc3[nH]c(-c4ccccc4)nc3c2)CC1` (stereo partly shown) [Example 636, (1r,4r)-4-(2-phenyl-1H-benzo[d]imidazole-5-sulfonamido)-N-(1,2,3,4-tetrahydronaphthalen-1-yl)cyclohexanecarboxamide]: 1720 nM.

With `O=C(NCC1CC1)[C@H]1CC[C@H](NS(=O)(=O)c2ccc3[nH]c(-c4ccccc4)nc3c2)CC1` [Example 637, (1r,4r)-N-(cyclopropylmethyl)-4-(2-phenyl-1H-benzo[d]imidazole-5-sulfonamido)cyclohexanecarboxamide], the concentration for half-maximal inhibition (IC50) worked out at 372 nM.

On to `O=C(NC1Cc2ccccc2C1)[C@H]1CC[C@H](NS(=O)(=O)c2ccc3[nH]c(-c4ccccc4)nc3c2)CC1` [Example 638, (1r,4r)-N-(2,3-dihydro-1H-inden-2-yl)-4-(2-phenyl-1H-benzo[d]imidazole-5-sulfonamido)cyclohexanecarboxamide], for which the IC50 came to 125 nM. As to `O=C(NCC1CCCCC1)[C@H]1CC[C@H](NS(=O)(=O)c2ccc3[nH]c(-c4ccccc4)nc3c2)CC1` [Example 639, (1r,4r)-N-(cyclohexylmethyl)-4-(2-phenyl-1H-benzo[d]imidazole-5-sulfonamido)cyclohexanecarboxamide], the half-maximal inhibitory concentration (IC50) worked out at 352 nM.
